Results reported in US12545685B2 (Daiichi Sankyo Company, Limited, priority 2011, dated 2026).

What was measured:
[1] = tested on: human lung cancer-derived cell line NCI-H460 having wild-type p53; assay: Cell growth inhibition assay (MTT); format: cell-based; settings: 72 h, NCI-H460 cells, 3 days culture, values given as ranges, read-out: 50% growth inhibition concentration (GI50 value)
In short: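 NCI-H460 cells (wild-type p53) seeded at 500 cells/well in RPMI1640 with 10% FBS, then treated the next day and grown 3 days at 37 °C. MTT read-out at OD 540 nm (660 nm reference), taken at dosing and at day 3. GI50 derived from T/C (%) dose-response curves.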

[2] = target: T1, Mdm2/p53 binding (GST-Mdm2 / His-p53) (Homo sapiens, UniProt Q00987, L33E); assay: Mdm2/p53 binding assay (HTRF, His-p53 and GST-Mdm2); settings: His-p53 (aa 1-132) and GST-Mdm2 (aa 25-108, L33E) 6.25 nM each; 25°C, 1 hour; values given as ranges
T1 construct: Mdm2 partial protein having Mdm2 amino acids at positions 25 to 108
T1 sequence (Q00987 25-108 L33E): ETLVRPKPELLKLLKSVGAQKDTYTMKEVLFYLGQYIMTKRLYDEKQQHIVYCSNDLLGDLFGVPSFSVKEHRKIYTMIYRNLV
In short: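 His-p53 (aa 1–132) and GST-Mdm2 (aa 25–108, L33E) were prepared at 6.25 nM each in the protein dilution (20 mM HEPES pH 7.4, 150 mM NaCl, 0.1% BSA). Compound in 10% DMSO buffer and XL665 anti-His/Eu anti-GST antibodies (KF buffer) were added, with 1 h at 25 °C. The 665/620 nm TR-FRET ratio gave T/C and a sigmoid-fitted IC50.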

Compound | GI50 [1] [µM] | IC50 [2] [µM]
CC1(C)CCC2(CC1)N[C@@H](C(=O)N[C@@H]1CC[C@@H](c3n[nH]c(=O)o3)OC1)[C@H](c1ccnc(Cl)c1F)[C@]21C(=O)Nc2cc(Cl)ccc21 [Example 57, (3′R, 4′S,5′R)-6″-chloro-4′-(2-chloro-3-fluoropyridin-4-yl)-4,4-dimethyl-2″-oxo-N-[(3R,6S)-6-(5-oxo-4,5-dihydro-1,3,4-oxadiazol-2-yl)tetrahydro-2H-pyran-3-yl]-1″,2″-dihydrodispiro[cyclohexane-1,2′-pyrrolidine-3′,3″-indole]-5′-carboxamide] | 0.1 to 0.5 | 0.001 to 0.05
CCNC(=O)[C@@H]1CC[C@@H](NC(=O)[C@@H]2NC3(CCC(C)(C)CC3)[C@@]3(C(=O)Nc4cc(Cl)ccc43)[C@H]2c2ccnc(Cl)c2F)CO1 [Example 88, (3′R, 4′S,5′R)-6″-chloro-4′-(2-chloro-3-fluoropyridin-4-yl)-N-[(3R,6S)-6-(ethylcarbamoyl)tetrahydro-2H-pyran-3-yl]-4,4-dimethyl-2″-oxo-1″,2″-dihydrodispiro[cyclohexane-1,2′-pyrrolidine-3′,3″-indole]-5′-carboxamide] | 0.1 to 0.5 | 0.05 to 0.1
CC(C)NC(=O)[C@@H]1CC[C@@H](NC(=O)[C@@H]2NC3(CCC(C)(C)CC3)[C@@]3(C(=O)Nc4cc(Cl)ccc43)[C@H]2c2ccnc(Cl)c2F)CO1 [Example 96, (3′R, 4′S,5′R)-6″-chloro-4′-(2-chloro-3-fluoropyridin-4-yl)-N-[(3R,6S)-6-(isopropylcarbamoyl)tetrahydro-2H-pyran-3-yl]-4,4-dimethyl-2′-oxo-1″,2″-dihydrodispiro[cyclohexane-1,2′-pyrrolidine-3′,3″-indole]-5′-carboxamide] | 0.1 to 0.5 | 0.05 to 0.1
CNC(=O)[C@@H]1CC[C@@H](NC(=O)[C@@H]2NC3(CCC(C)(C)CC3)[C@@]3(C(=O)Nc4cc(Cl)ccc43)[C@H]2c2ccnc(Cl)c2F)CO1 [Example 99, (3′R, 4′S,5′R)-6″-chloro-4′-(2-chloro-3-fluoropyridin-4-yl)-N-[(3R,6S)-6-(methylcarbamoyl)tetrahydro-2H-pyran-3-yl]-4,4-dimethyl-2″-oxo-1″,2″-dihydrodispiro[cyclohexane-1,2′-pyrrolidine-3′,3″-indole]-5′-carboxamide] | < 0.1 | 0.001 to 0.05
CN(C)C(=O)[C@@H]1CC[C@@H](NC(=O)[C@@H]2NC3(CCC(C)(C)CC3)[C@@]3(C(=O)Nc4cc(Cl)ccc43)[C@H]2c2ccnc(Cl)c2F)CO1 [Example 100, (3′R, 4′S,5′R)-6″-chloro-4′-(2-chloro-3-fluoropyridin-4-yl)-N-[(3R,6S)-6-(dimethylcarbamoyl)tetrahydro-2H-pyran-3-yl]-4,4-dimethyl-2″-oxo-1″,2″-dihydrodispiro[cyclohexane-1,2′-pyrrolidine-3′,3′″-indole]-5′-carboxamide] | < 0.1 | 0.001 to 0.05
CC1(C)CCC2(CC1)N[C@@H](C(=O)N[C@@H]1CC[C@@H](C(=O)NC3CCOCC3)OC1)[C@H](c1ccnc(Cl)c1F)[C@]21C(=O)Nc2cc(Cl)ccc21 [Example 109, (3′R, 4′S,5′R)-6″-chloro-4′-(2-chloro-3-fluoropyridin-4-yl)-4,4-dimethyl-2″-Oxo-N-[(3R,6S)-6-(tetrahydro-2H-pyran-4-ylcarbamoyl)tetrahydro-2H-pyran-3-yl]-1″,2″-dihydrodispiro[cyclohexane-1,2′-pyrrolidine-3′,3″-indole]-5′-carboxamide] | 0.1 to 0.5 | 0.001 to 0.05
CC1(C)CCC2(CC1)N[C@@H](C(=O)N[C@@H]1CC[C@@H](C(=O)N3CCOCC3)OC1)[C@H](c1ccnc(Cl)c1F)[C@]21C(=O)Nc2cc(Cl)ccc21 [Example 110, (3′R, 4′S,5′R)-6″-chloro-4′-(2-chloro-3-fluoropyridin-4-yl)-4,4-dimethyl-N-[(3R,6S)-6-(morpholin-4-ylcarbonyl)tetrahydro-2H-pyran-3-yl]-2″-oxo-1″,2″-dihydrodispiro[cyclohexane-1,2′-pyrrolidine-3′,3″-indole]-5′-carboxamide] | < 0.1 | 0.001 to 0.05
CC1(C)CCC2(CC1)N[C@@H](C(=O)N[C@@H]1CC[C@@H](CC(N)=O)OC1)[C@H](c1ccnc(Cl)c1F)[C@]21C(=O)Nc2cc(Cl)ccc21 [Example 111, (3′R, 4′S,5′R)—N-[(3R,6S)-6-(2-amino-2-oxoethyl)tetrahydro-2H-pyran-3-yl]-6″-chloro-4′-(2-chloro-3-fluoropyridin-4-yl)-4,4-dimethyl-2″-oxo-1″,20-dihydrodispiro[cyclohexane-1,2′-pyrrolidine-3′,3″-indole]-5′-carboxamide] | 0.1 to 0.5 | 0.001 to 0.05

The next lines start with the values.

GI50 [1] [µM] | IC50 [2] [µM] | Compound
0.5 to 1 | 0.05 to 0.1 | CC1(C)CCC2(CC1)N[C@@H](C(=O)N[C@H]1CC[C@H](c3nnco3)CC1)[C@H](c1ccnc(Cl)c1)[C@]21C(=O)Nc2cc(Cl)ccc21 [Example 54, (3′R, 4′R, 5′R)-6″-chloro-4′-(2-chloropyridin-4-yl)-4,4-dimethyl-N-[trans-4-(1,3,4-oxadiazol-2-yl)cyclohexyl]-2″-oxo-1″,2″-dihydrodispiro[cyclohexane-1,2′-pyrrolidine-3′,3″-indole]-5′-carboxamide]
0.1 to 0.5 | 0.001 to 0.05 | CC1(C)CCC2(CC1)N[C@@H](C(=O)N[C@H]1CC[C@H](C(N)=O)CC1)[C@H](c1ccnc(Cl)c1F)[C@]21C(=O)Nc2cc(Cl)ccc21 [Example 67, (3′R, 4′S,5′R)—N-(trans-4-carbamoylcyclohexyl)-6″-chloro-4′-(2-chloro-3-fluoropyridin-4-yl)-4,4-dimethyl-2′-oxo-1″,2″-dihydrodispiro[cyclohexane-1,2′-pyrrolidine-3′,3″-indole]-5′-carboxamide]
0.1 to 0.5 | 0.001 to 0.05 | CO[C@@H]1C[C@@H](NC(=O)[C@@H]2NC3(CCC(C)(C)CC3)[C@@]3(C(=O)Nc4cc(Cl)ccc43)[C@H]2c2ccnc(Cl)c2F)CO[C@@H]1CO [Example 69, (3′R, 4′S,5′R)-6″-chloro-4′-(2-chloro-3-fluoropyridin-4-yl)-N-((3R,5R,6R)-6-(hydroxymethyl)-5-methoxytetrahydro-2H-pyran-3-yl)-4,4-dimethyl-2″-oxo-1″,2″-dihydrodispiro[cyclohexane-1,2′-pyrrolidine-3′,3″-indole]-5′-carboxamide]
0.1 to 0.5 | 0.001 to 0.05 | CC1(C)CCC2(CC1)N[C@@H](C(=O)N[C@@H]1CC[C@@H](C(=O)NC3CC3)OC1)[C@H](c1ccnc(Cl)c1F)[C@]21C(=O)Nc2cc(Cl)ccc21 [Example 97, (3′R, 4′S,5′R)-6″-chloro-4′-(2-chloro-3-fluoropyridin-4-yl)-N-[(3R,6S)-6-(cyclopropylcarbamoyl)tetrahydro-2H-pyran-3-yl]-4,4-dimethyl-2″-oxo-1″,2″-dihydrodispiro[cyclohexane-1,2′-pyrrolidine-3′,3″-indole]-5′-carboxamide]
0.1 to 0.5 | 0.001 to 0.05 | CC1(C)CCC2(CC1)N[C@@H](C(=O)N[C@@H]1CC[C@@H](C(=O)N3CC(O)C3)OC1)[C@H](c1ccnc(Cl)c1F)[C@]21C(=O)Nc2cc(Cl)ccc21 [Example 107, (3′R, 4′S,5′R)-6″-chloro-4′-(2-chloro-3-fluoropyridin-4-yl)-N-{(3R,6S)-6-[(3-hydroxyazetidin-1-yl)carbonyl]tetrahydro-2H-pyran-3-yl}-4,4-dimethyl-2″-oxo-1″,2″-dihydrodispiro[cyclohexane-1,2′-pyrrolidine-3′,3″-indole]-5′-carboxamide]
